Results: patent US6878736B1, “Histamine H3 receptor ligands” (James Black Foundation Limited, priority 1998, dated 2005)
Counter-ions that a name gives are not always drawn.

Tests used:
Histamine H3 receptor [1] = target: T1, Histamine H3 receptor (Cavia porcellus, UniProt Q9JI35); test: Histamine H3 radioligand binding assay, guinea pig cortex ([3H]-R-α-methylhistamine); conditions: guinea pig cortex membranes, competition with 1 nM [3H]-R-α-methylhistamine; for Ki: read-out: pKi (Guinea pig cortex) (converted)
Summary of the method: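 Male Dunkin Hartley guinea pig cortical membranes incubated 165 min at 21±3 °C in 20 mM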

Histamine H3 receptor [2] = target: T1, Histamine H3 receptor; test: Histamine H3 functional assay, guinea pig ileum (ileal longitudinal muscle, myenteric plexus); set-up: species or system tissue; conditions: antagonist affinity from rightward shift of R-(α)-methylhistamine E/[A] curves (Schild), typical variance ±0.15 log units; for Kb: read-out: pKb (Guinea pig ileum) (converted)
Summary of the method: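 Longitudinal muscle–myenteric plexus strips from male Dunkin-Hartley guinea pigs (250-300 g), Krebs-Henseleit buffer at 37±1° C, field-stimulated at 0.1 Hz, 0.5 msec, supramaximal voltage; isometric recording. Cumulative R-(α)-methylhistamine E/[A] curves as % inhibition of twitch height; antagonist affinity by Schild analysis of rightward shift.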

T1 sequence (Q9JI35 whole entry): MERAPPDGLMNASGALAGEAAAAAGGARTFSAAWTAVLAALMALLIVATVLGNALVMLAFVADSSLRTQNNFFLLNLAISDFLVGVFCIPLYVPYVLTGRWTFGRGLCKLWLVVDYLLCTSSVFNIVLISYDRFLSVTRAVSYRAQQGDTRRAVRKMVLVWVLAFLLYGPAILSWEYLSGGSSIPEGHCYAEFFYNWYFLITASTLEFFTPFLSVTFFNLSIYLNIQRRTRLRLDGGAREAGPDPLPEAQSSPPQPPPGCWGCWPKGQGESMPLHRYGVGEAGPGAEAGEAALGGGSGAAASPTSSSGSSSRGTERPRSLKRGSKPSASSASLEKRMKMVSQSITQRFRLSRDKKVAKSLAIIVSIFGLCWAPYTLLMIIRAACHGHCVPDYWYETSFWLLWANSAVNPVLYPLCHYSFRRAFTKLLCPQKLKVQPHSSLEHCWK

Ki (Histamine H3 receptor [1]) [nM] | Kb (Histamine H3 receptor [2]) [nM] | Compound | pKi (Guinea pig cortex) (Histamine H3 receptor [1]) | pKb (Guinea pig ileum) (Histamine H3 receptor [2])
398 | 501 | CN1CCCC1CCCCCNS(=O)(=O)Cc1ccc(Cl)cc1 (stereo not drawn) [Example 105, N-(5-(1-Methyl-pyrrolidin-2S-yl)-pentyl)-(4-chlorophenyl)-methanesulfonamide] |  | 
316 | 1000 | O=S(=O)(NCCCN1CCCC1)c1ccc2ccccc2c1 [Example 82, N-(3-Pyrrolidin-1-yl-propyl)-2-naphthalenesulfonamide] |  | 
1000 | 631 | O=S(=O)(Cc1ccc(Cl)cc1)NCCCN1CCCC1 [Example 106, N-(3-Pyrrolidin-1-yl-propyl)-(4-chlorophenyl)-methanesulfonamide] |  | 
1 | 12.6 | N=C(N)N(CCCCCN1CCCC1)Cc1ccc(Cl)cc1 [Example 69, N-(4-Chlorobenzyl)-N-(5-pyrrolidin-1-yl-pentyl)-guanidine bis-hydrochloride] |  | 

Continued, compound first:

Compound | Ki (Histamine H3 receptor [1]) [nM] | Kb (Histamine H3 receptor [2]) [nM] | pKi (Guinea pig cortex) (Histamine H3 receptor [1]) | pKb (Guinea pig ileum) (Histamine H3 receptor [2])
Cl.Cl.N=C(NCCCCCCCN1CCCC1)NCC12CC3CC(CC(C3)C1)C2 [Example 32, N-Adamantan-1-yl-methyl-N′-(7-pyrrolidin-1-yl-heptyl)-guanidine bis-hydrochloride] |  |  | 8.5 | 8.0
CN1CC(OCc2ccc(Cl)cc2)CC1CCCNS(=O)(=O)NCc1ccc(Cl)cc1 (stereo not drawn) [Example 133, N-(4-Chlorobenzyl)-N′-(3-(4R-(4-chlorobenzyloxy)-1-methyl-pyrrolidin-2S-yl)-propyl)-sulfamide] | 2510 | > 3160 |  | 
N=C(NCCCN1CCCC1)NCc1ccc2[nH]cnc2c1 [Example 13, N-(1H-Benzimidazol-5-yl-methyl)-N′-(3-pyrrolidin-1-yl-propyl)-guanidine tris-hydrochloride] | 20 | 501 |  | 
N=C(NCCCN1CCCC1)NCc1ccc(Br)cc1 [Example 9, N-(4-Bromobenzyl)-N′-(3-pyrrolidin-1-yl-propyl)-guanidine bis-hydrochloride] | 5.01 | 316 |  | 
N=C(N)N(CCCCCCN1CCCC1)Cc1ccc(Br)cc1 [Example 74, N-(4-Bromobenzyl)-N-(6-pyrrolidin-1-yl-hexyl)-guanidine bis-hydrochloride] | 7.94 | 12.6 |  | 
N=C(N)N(CCCCCCN1CCCC1)Cc1ccc(Cl)cc1 [Example 70, N-(4-Chlorobenzyl)-N-(6-pyrrolidin-1-yl-hexyl)-guanidine bis-hydrochloride] | 5.01 | 3.98 |  | 
O=S(=O)(NCCN1CCCC1)c1ccc2ccccc2c1 [Example 81, N-(2-Pyrrolidin-1-yl-ethyl)-2-naphthalenesulfonamide] | 126 | 1260 |  | 
